Test results: patent US20250134860A1, “NOVEL COMPOUND, AND COMPOSITION FOR PREVENTING, ALLEVIATING OR TREATING BACTERIAL INFLAMMATION AND INFLAMMASOME-MEDIATED DISEASES, COMPRISING SAME AS ACTIVE INGREDIENT” (Quorum Bio Co., Ltd., priority 2022, published 2025)

Test system: mouse bone marrow-derived macrophages
Assay: Cytotoxicity in mouse bone marrow-derived macrophages (MTT)
Type: cell-based
Details: at a concentration of 16 μM or less (0.5-16 μM tested), 24 hours
Description: Bone marrow was isolated from the femur and tibia of 8-12 week old C57BL/6J mice (available from Daehan Biolink) using a 26 g syringe, and the isolated bone marrow was differentiated into macrophages by culturing a medium containing IMDM media+30% L929 cell supernatant+10% fetal bovine serum+1% pencillin/streptomycin+1% non-essential amino acid+1% sodium pyruvate in a 150TT cell culture plate for 6 days, and used for the experiment.
The differentiated macrophages were seeded in 200 μl increments in a 48-well plate at a concentration of 1×10^6 cell/ml, and stabilized at 37° C. and 5% CO2 for 12 hours. […]
Then, the supernatant of the cultured cells was removed, treated with 200 μl of MTT solution having a concentration of 400 μg/ml, and then reacted at […] and 5% CO2 for 4 hours. Then, the reaction solution was removed, 200 μl of DMSO was added, and the absorbance was measured at 570 nm. At this time, the viability of cells treated with the sample was calculated based on the viability of untreated cells considered as 100%, and is shown in FIG. 6. […]
The supernatant of the cultured cells was then removed, 200 μl of MTT solution having a concentration of 400 μg/ml was added, and then reacted at […] and 5% CO2 for 4 hours. Then, the reaction solution was removed, 200 μl of DMSO was added, and the absorbance was measured at 570 nm. […]

With `Cc1ccc(C(=C2c3ccccc3C(=O)N2C)c2ccc(C)cc2)cc1` [Example 1-2, 3-(di-p-tolylmethylene)-2-methylisoindolin-1-one] the “cytotoxicity (cell viability, MTT)” value was “did not exhibit cytotoxicity”.
